IC50 data for six compounds are collected here from PMC6317055, “Metabolites from the Paracel Islands Soft Coral Sinularia cf. molesta” (Marine Drugs, 2018).

The IC50 is the concentration that inhibits the measured activity by half.

Data set [1] has as its target T1, protein tyrosine phosphatase 1B (PTP1B) (Homo sapiens, UniProt P18031).
T1 sequence (P18031 1-435): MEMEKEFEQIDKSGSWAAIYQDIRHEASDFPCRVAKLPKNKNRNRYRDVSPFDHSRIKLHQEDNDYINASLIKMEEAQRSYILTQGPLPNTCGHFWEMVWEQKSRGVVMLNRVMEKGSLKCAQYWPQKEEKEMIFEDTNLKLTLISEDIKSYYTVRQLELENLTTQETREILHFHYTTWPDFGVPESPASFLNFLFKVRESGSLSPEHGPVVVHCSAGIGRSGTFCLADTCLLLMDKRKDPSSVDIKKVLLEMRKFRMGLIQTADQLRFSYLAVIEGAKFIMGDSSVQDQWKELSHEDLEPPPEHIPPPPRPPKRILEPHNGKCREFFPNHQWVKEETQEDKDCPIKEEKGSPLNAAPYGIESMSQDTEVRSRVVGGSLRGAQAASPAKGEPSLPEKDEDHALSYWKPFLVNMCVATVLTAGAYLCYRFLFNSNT
The experiment in a line: PTP1B inhibitory assay, pNPP method.
Protocol: These isolated sesquiterpenes were also assessed for their inhibitory activities against PTP1B.

Data set [2] is described as follows: Cytotoxicity assay, SRB method, HeLa. It counts as cell-based. The conditions noted are these: human, adriamycin positive control, read-out: cytotoxicity IC50 against HeLa cell lines. Here is the method:
(§1) Considering the reported cytotoxic activities of some sesquiterpenes, cyclopentenone derivatives, and cembranoid diterpenes, all the compounds were evaluated for their cytotoxic activities against HeLa (human cervical carcinoma), HCT-116 (human colon carcinoma), BEL-7402 (human hepatocellular carcinoma), K562 (human leukemia), and Jurkat (human acute leukemia T) tumor cell lines.
In general terms: In SRB staining, fixed cells bind dye roughly in proportion to their protein.

A short description of data set [3]: Cytotoxicity assay, SRB method, HCT-116. The class given is cell-based. The note with it: human, HCT-116 cells (human colon carcinoma); HCT-116, SRB method, adriamycin positive control; read-out: cytotoxicity IC50 against HCT-116 cell lines. How it is done:
as §1

Setting [4] is: HeLa cells (human cervical carcinoma).

The structures appear in SMILES notation.

As to `CC(C)C1=CC2=C(C(=O)C[C@@]2(C)O)[C@H](C)CC1` [Compound 4, Molestin C], the IC50 in data set [1] came out at 218 µM.
Still for that read-out and setting: the figure for `COC12CCC(C)(O)C1=CC(=O)CCC2C` (stereo not shown) [Compound 5, Molestin D] is 344 µM; for `C=C/C(C)=C\CCC(C)Cc1cc(C(=O)O)co1` (stereo not shown) [Compound 8, (5′Z)-5-(2′,6′-Dimethylocta-5′,7′-dienyl)-furan-3-carboxylic acid] it is 1.24 µM.
`C=C(C)C1CC2=C(C(=O)OC)C=C(O2)C(O)C(C)(O)CC2C=C(C(=O)O2)C(OC(C)=O)C1` (stereo not shown) [Compound 14, Molestin E]: the values for the IC50 in data set [2] and in data set [3] were 5.26 µM and 8.37 µM, respectively.
In the case of `C=C(C)[C@@H]1C/C=C2\C(=O)O[C@@H](C[C@]3(C)CC(=O)[C@H](CC(=O)C1)O3)[C@@H]2O` [Compound 17, 5-epi-sinuleptolide], the IC50 in data set [2] (setting [4]) was determined as 6.66 µM.
Take `C=C(C)[C@@H]1C/C=C2\C(=O)O[C@@H](C[C@]3(C)CC(=O)[C@@H](CC(=O)C1)O3)[C@@H]2O` [Compound 18, sinuleptolide]: the IC50 in data set [2] (setting [4]) came out at 6.1 µM.
